Source: patent publication US4393047A, “Antibiotic cytophagin and a process for producing the same” (Microbiochemical Research Foundation, priority 1981, dated 1983)

Experiments:
mouse = test: Acute toxicity in mouse; type: in vivo; details: ip., 200 mg/kg in DMSO/water, two groups of 3
Experimental: The acute toxicity of cytophagin was determined by using mouse as test animals.

[1] = tested on: various Gram-positive bacteria; test: Activity against the growth of Gram-positive bacteria (Table 1); type: cell-based; details: qualitative, from Table 1
Source text: (§1) **Determined by agar dilution method using a bouilon medium (pH:7).

[2] = tested on: Pseudomonas aeruginosa A 3; test: Minimum growth inhibitory concentration, agar dilution method; type: cell-based; details: pH 7
Source text: as §1

[3] = tested on: Bacillus subtilis NRRL B-558; test: as above; type: cell-based; details: pH 7
Source text: as §1

[4] = tested on: Mycobacterium smegmatis ATCC 607; test: as above; type: cell-based; details: pH 7
Source text: as §1

Escherichia coli K-12 = test: as above; type: cell-based; details: pH 7
Source text: as §1

Sarcina lutea PCI 1001 = test: as above; type: cell-based; details: pH 7
Source text: as §1

[5] = tested on: Staphylococcus aureus FDA 209P; test: as above; type: cell-based; details: bouillon medium pH 7
Source text: as §1

Candida albicans 3147 = test: as above; type: cell-based; details: pH 7
Source text: as §1

[6] = tested on: Micrococcus lysodeikticus IFO 3333; test: as above; type: cell-based; details: pH 7
Source text: as §1

[7] = tested on: Staphylococcus aureus MS 8800; test: as above; type: cell-based; details: Staphylococcus aureus MS 8800, resistant to penicillin, tetracyclin, streptomycin and erythromycin, pH 7
Source text: as §1

[8] = tested on: Staphylococcus sp M-XX-0105; test: as above; type: cell-based; details: Staphylococcus sp M-XX-0105, resistant to amikacin, tobramycin and DKB, pH 7
Source text: as §1

[9] = tested on: Bacillus subtilis PCI 219; test: as above; type: cell-based; details: pH 7
Source text: as §1

[10] = Solubility in various solvents; type: physicochemical

Question: With cytophagin as the substance, how does the “acute toxicity (survival)” value (mouse) read?
Answer: All of them (two groups, each consisting of 3 mouse) survived

Question: What about the “activity against the growth of various Gram-positive bacteria” value [1] of the same substance?
Answer: strongly active

Question: And the MIC [2]?
Answer: > 100 µg/mL

Question: What about the MIC [3] of the same substance?
Answer: 1.56 µg/mL

Question: What about the MIC [4] of the same substance?
Answer: > 100 µg/mL

Question: What about the MIC (Escherichia coli K-12) of the same substance?
Answer: > 100 µg/mL

Question: And the MIC (Sarcina lutea PCI 1001)?
Answer: 0.1 µg/mL

Question: What about the MIC [5] of the same substance?
Answer: 1.56 µg/mL

Question: And the MIC (Candida albicans 3147)?
Answer: 50 µg/mL

Question: And the MIC [6]?
Answer: 0.1 µg/mL

Question: What about the MIC [7] of the same substance?
Answer: 1.56 µg/mL

Question: What about the MIC [8] of the same substance?
Answer: 2.5 µg/mL

Question: What about the MIC [9] of the same substance?
Answer: 1.56 µg/mL

Question: What about the Solubility ([10]; acetic acid) of the same substance?
Answer: Readily soluble

Question: And the Solubility ([10]; acetone)?
Answer: hardly soluble

Question: What about the Solubility ([10]; chloroform) of the same substance?
Answer: hardly soluble

Question: What about the Solubility ([10]; dimethylsulfoxide) of the same substance?
Answer: Readily soluble

Question: What about the Solubility ([10]; ethanol) of the same substance?
Answer: substantially soluble

Question: And the Solubility ([10]; ethyl acetate)?
Answer: hardly soluble

Question: What about the Solubility ([10]; ethyl ether) of the same substance?
Answer: hardly soluble

Question: What about the Solubility ([10]; methanol) of the same substance?
Answer: substantially soluble

Question: And the Solubility ([10]; water)?
Answer: hardly soluble
